Here are results for 15 compounds from the Kinase Knowledgebase extract (Sharma et al. 2016).

Sequence of MAPK14 (human) (Q16539 whole entry, looked up): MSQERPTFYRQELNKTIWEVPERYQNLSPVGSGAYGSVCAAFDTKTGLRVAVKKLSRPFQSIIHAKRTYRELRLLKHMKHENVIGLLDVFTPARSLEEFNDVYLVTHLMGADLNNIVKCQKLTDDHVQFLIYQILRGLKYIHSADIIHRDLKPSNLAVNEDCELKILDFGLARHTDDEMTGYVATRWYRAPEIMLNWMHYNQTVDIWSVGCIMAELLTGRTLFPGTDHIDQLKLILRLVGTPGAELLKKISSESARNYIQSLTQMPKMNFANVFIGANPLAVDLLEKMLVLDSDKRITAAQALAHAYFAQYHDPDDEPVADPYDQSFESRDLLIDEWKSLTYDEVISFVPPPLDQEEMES

The assay has as its target MAPK14 (human) (UniProt Q16539). The assay can be described thus: Inhibition of LPS Stimulated TNF-alpha Production in THP-1 Cells. As to conditions: thp1.
For the compound `CCc1nc(-c2ccc(Cl)cc2)c(-c2ccnc(NC(=O)c3ccccc3)c2)s1`, the IC50 worked out at 15 nM.
With `CCc1nc(-c2cccc(Cl)c2)c(-c2ccnc(N[C@@H](C)c3ccccc3)c2)s1`, the IC50 is 57 nM.
`Cc1cccc(-c2nc(N)sc2-c2ccncc2)c1`: the half-maximal inhibitory concentration (IC50) is 46 nM.
With `Cc1cccc(-c2nc(N(C)C(=O)c3ccc(C)nc3)sc2-c2ccnc(NC3CCCC3)c2)c1` the figure was 82 nM.
With `CNc1nc(-c2ccc(Cl)cc2)c(-c2ccncc2)s1` the figure was 180 nM.
In turn, `Cc1cc(C)cc(-c2nc(N)sc2-c2ccnc(NCc3ccccc3)c2)c1` came in with an IC50 of 140 nM.
Take `CCc1nc(-c2cccc(C)c2)c(-c2ccnc(NC(=O)c3ccsc3)c2)s1`: the IC50 was determined as 5.9 nM.
Compound `COc1ccc(-c2nc(N)sc2-c2ccnc(NC(=O)c3ccccc3)c2)cc1` had an IC50 of 14 nM.
Turning to `CCc1nc(-c2cccc(Cl)c2)c(-c2ccnc(NC3CCCCC3)c2)s1`, the IC50 is 55 nM.
As to `Cc1cc(C)cc(-c2nc(N)sc2-c2ccnc(NC(=O)c3ccccc3)c2)c1`, the IC50 amounted to 20 nM.
`COc1ccc(-c2nc(NC(=O)c3cccnc3)sc2-c2ccnc(NC(=O)c3cccnc3)c2)cc1` displayed an IC50 of 26 nM.
The compound `CCc1nc(-c2cccc(Cl)c2)c(-c2ccnc(NC(C)=O)c2)s1` returned an IC50 of 120 nM.
Regarding `CCC(=O)Nc1cc(-c2sc(-c3ccc(S(C)(=O)=O)cc3)nc2-c2cccc(Cl)c2)ccn1`, the IC50 is 21 nM.
The compound `CCCc1nc(-c2cccc(C)c2)c(-c2ccnc(N)c2)s1` had an IC50 of 2 nM.
The compound `CNc1nc(-c2ccc(OC)cc2)c(-c2ccncc2)s1` came in with an IC50 of 140 nM.
